Values belong to the compound of their own block, whether it stands above or below them.
Tests used:
[1] = biological target: T1, Ectonucleotide pyrophosphatase/phosphodiesterase family member 1 (Homo sapiens, UniProt P22413); assay: Competitive-inhibition of recombinant human N-terminal His-tagged soluble NPP1 (Val191 to Leu591 residues) expressed in mouse NSO cells using ATP as substrate after 30 mins by capillary electrophoresis method
T1 sequence (P22413 whole entry): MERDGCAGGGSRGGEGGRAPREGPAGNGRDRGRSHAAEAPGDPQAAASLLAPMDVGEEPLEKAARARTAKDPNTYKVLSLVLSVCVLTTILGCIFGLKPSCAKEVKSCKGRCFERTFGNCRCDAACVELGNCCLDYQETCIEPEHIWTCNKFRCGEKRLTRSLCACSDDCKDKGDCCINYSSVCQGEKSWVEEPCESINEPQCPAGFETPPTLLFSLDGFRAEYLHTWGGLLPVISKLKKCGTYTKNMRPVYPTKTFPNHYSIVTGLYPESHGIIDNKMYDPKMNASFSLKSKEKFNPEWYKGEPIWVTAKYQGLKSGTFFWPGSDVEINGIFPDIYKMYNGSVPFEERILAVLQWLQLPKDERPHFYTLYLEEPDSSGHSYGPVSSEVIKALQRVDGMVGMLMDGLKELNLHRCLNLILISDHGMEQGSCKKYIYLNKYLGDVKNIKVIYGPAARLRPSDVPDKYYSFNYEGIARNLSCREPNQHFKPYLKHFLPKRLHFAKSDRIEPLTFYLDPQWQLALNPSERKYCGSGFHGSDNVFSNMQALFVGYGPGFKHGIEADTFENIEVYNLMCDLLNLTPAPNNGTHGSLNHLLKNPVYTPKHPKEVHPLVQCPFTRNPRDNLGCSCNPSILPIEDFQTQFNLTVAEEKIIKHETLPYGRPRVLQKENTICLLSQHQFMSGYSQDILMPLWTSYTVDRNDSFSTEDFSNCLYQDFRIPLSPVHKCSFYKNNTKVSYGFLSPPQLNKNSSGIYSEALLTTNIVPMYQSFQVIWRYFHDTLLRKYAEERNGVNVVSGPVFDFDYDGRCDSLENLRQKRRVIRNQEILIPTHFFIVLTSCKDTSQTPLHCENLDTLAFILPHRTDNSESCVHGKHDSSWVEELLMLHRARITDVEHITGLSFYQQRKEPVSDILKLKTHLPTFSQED

[2] = biological target: T1, Ectonucleotide pyrophosphatase/phosphodiesterase family member 1; assay: Competitive-inhibition of recombinant human NPP1 expressed in HEK293 cell membranes using p-Nph-5'-TMP as substrate pretreated for 10 mins followed by substrate addition and measured after 60 mins by capillary electrophoresis method
[3] = biological target: T2, Ectonucleotide pyrophosphatase/phosphodiesterase family member 1 (Rattus norvegicus, UniProt Q924C3); assay: Competitive-inhibition of Wistar rat NPP1 using p-Nph-5'-TMP as substrate measured after 5 mins by UPLC method
T2 sequence (Q924C3 whole entry): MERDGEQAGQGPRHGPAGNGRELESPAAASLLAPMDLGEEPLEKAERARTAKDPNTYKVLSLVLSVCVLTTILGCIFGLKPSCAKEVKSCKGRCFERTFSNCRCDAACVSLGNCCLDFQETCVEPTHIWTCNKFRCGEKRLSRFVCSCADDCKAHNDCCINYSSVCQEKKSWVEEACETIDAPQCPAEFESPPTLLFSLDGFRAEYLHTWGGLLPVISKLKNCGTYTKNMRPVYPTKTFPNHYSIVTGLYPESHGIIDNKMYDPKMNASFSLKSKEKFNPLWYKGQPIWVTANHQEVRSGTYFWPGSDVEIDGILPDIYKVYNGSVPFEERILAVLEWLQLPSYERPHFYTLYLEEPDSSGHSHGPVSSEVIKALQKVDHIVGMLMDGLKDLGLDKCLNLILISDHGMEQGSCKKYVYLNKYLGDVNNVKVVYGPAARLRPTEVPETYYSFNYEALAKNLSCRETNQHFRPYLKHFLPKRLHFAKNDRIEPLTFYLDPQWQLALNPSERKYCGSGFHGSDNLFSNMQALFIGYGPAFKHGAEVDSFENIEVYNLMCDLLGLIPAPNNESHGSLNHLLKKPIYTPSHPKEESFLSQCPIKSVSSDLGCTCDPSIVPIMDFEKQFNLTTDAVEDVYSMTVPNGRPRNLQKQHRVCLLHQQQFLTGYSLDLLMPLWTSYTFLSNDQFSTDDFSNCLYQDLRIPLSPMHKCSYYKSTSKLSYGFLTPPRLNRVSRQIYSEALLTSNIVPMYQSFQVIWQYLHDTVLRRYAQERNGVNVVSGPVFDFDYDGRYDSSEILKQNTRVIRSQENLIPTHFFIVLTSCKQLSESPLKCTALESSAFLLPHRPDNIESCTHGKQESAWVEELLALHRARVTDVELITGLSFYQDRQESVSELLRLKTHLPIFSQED

[4] = biological target: T1, Ectonucleotide pyrophosphatase/phosphodiesterase family member 1; assay: Noncompetitive-inhibition of recombinant human NPP1 expressed in HEK293 cell membranes using p-Nph-5'-TMP as substrate pretreated for 10 mins followed by substrate addition and measured after 60 mins by capillary electrophoresis method
[5] = biological target: T1, Ectonucleotide pyrophosphatase/phosphodiesterase family member 1; assay: Uncompetitive-inhibition of recombinant human N-terminal His-tagged soluble NPP1 (Val191 to Leu591 residues) expressed in mouse NSO cells using ATP as substrate by capillary electrophoresis method
[6] = biological target: T1, Ectonucleotide pyrophosphatase/phosphodiesterase family member 1; assay: Uncompetitive-inhibition of recombinant human N-terminal His-tagged soluble NPP1 (Val191 to Leu591 residues) expressed in mouse NSO cells using p-Nph-5'-TMP as substrate after 15 mins by capillary electrophoresis method
[7] = biological target: T1, Ectonucleotide pyrophosphatase/phosphodiesterase family member 1; assay: Uncompetitive-inhibition of recombinant human N-terminal His-tagged soluble NPP1 (Val191 to Leu591 residues) expressed in mouse NSO cells using p-Nph-5'-AMP as substrate after 30 mins by capillary electrophoresis method
[8] = biological target: T1, Ectonucleotide pyrophosphatase/phosphodiesterase family member 1; assay: Uncompetitive-inhibition of recombinant human N-terminal His-tagged soluble NPP1 (Val191 to Leu591 residues) expressed in mouse NSO cells using ATP as substrate after 30 mins by capillary electrophoresis method
[9] = biological target: T1, Ectonucleotide pyrophosphatase/phosphodiesterase family member 1; assay: Inhibition of recombinant human NPP1 expressed in COS7 cell membranes using p-Nph-5'-TMP as substrate pretreated for 10 mins followed by substrate addition and measured after 30 mins
[10] = biological target: T1, Ectonucleotide pyrophosphatase/phosphodiesterase family member 1; assay: Inhibition of recombinant human NPP1 expressed in COS7 cell membranes using p-Nph-5'-TMP as substrate pretreated for 10 mins followed by substrate addition and measured after 30 mins by spectrophotometric method
[11] = biological target: T2, Ectonucleotide pyrophosphatase/phosphodiesterase family member 1; assay: Inhibition of NPP1 in Wistar rat C6 cells using [gamma-32P]ATP as substrate pretreated for 30 mins followed by substrate addition and measured after 90 mins by TLC analysis; format: cell-based
[12] = biological target: T2, Ectonucleotide pyrophosphatase/phosphodiesterase family member 1; assay: Mixed-inhibition of Wistar rat NPP1 using p-Nph-5'-TMP as substrate measured after 5 mins by UPLC method

- Ki [1]: 14.6 µM
- Ki [2]: 2.96 µM
- Ki [3]: 20.5 µM
Structure (SMILES): Nc1ncnc2c1ncn2[C@@H]1O[C@H](COP(=O)(O)OP(=O)(O)OP(=O)(O)O)[C@@H](OC(=O)c2ccc(C(=O)c3ccccc3)cc2)[C@H]1O

- Ki [1]: 21.3 µM
- Ki [3]: 20.5 µM
Structure (SMILES): CSc1nc(N)c2ncn([C@@H]3O[C@H](COP(=O)(O)OP(=O)(O)OP(=O)(O)O)[C@@H](O)[C@H]3O)c2n1

- Ki [4]: 3.42 µM
Structure (SMILES): Nc1ncnc2c1ncn2[C@@H](C=O)O[C@@H](C=O)COP(=O)(O)OP(=O)(O)O

- Ki [5]: 6.82 µM
- Ki [6]: 4.09 µM
- Ki [7]: 5.08 µM
- Ki [3]: 9.8 µM
- Ki [8]: 6.96 µM
Structure (SMILES): Nc1ncnc2c1ncn2[C@@H](C=O)O[C@@H](C=O)COP(=O)(O)OP(=O)(O)OP(=O)(O)O

- IC50 [9]: 1.9 to 5.5 µM
Structure (SMILES): CCC(Oc1ccc(C)cc1)c1nnc(SCC(=O)Nc2nc3ccccc3s2)o1 (centres undefined)

- IC50 [10]: 0.36 to 2.81 µM
Structure (SMILES): COc1cc2cc(-n3cc(C)c4ccccc43)n3c4ccccc4c(C)c3c2cc1OC

- Ki [1]: 23.7 µM
Structure (SMILES): CSc1nc(N)c2ncn([C@@H]3O[C@H](COP(=O)(O)OP(=O)(O)O)[C@@H](O)[C@H]3O)c2n1

- IC50 [11]: 12 µM
Structure (SMILES): Cc1nc(/N=N/c2ccc(S(=O)(=O)O)cc2S(=O)(=O)O)c(COP(=O)(O)O)c(C=O)c1O

Structure (SMILES): Nc1ncnc2c1ncn2[C@@H]1O[C@H](COP(=O)(O)CP(=O)(O)OP(=O)(O)O)[C@@H](O)[C@H]1O [DIPHOSPHOMETHYLPHOSPHONIC ACID ADENOSYL ESTER]
- Ki [3]: 2.2 µM

Structure (SMILES): Nc1ncnc2c1ncn2[C@@H]1O[C@H](COP(=O)(O)CP(=O)(O)O)[C@@H](O)[C@H]1O [PHOSPHOMETHYLPHOSPHONIC ACID ADENOSYL ESTER]
- Ki [1]: 24.3 µM
- Ki [12]: 9.6 µM

- IC50 [11]: 72 µM
Structure (SMILES): Cc1ccc(C(=O)Nc2ccc(S(=O)(=O)O)c3cc(S(=O)(=O)O)cc(S(=O)(=O)O)c23)cc1NC(=O)c1cccc(NC(=O)Nc2cccc(C(=O)Nc3cc(C(=O)Nc4ccc(S(=O)(=O)O)c5cc(S(=O)(=O)O)cc(S(=O)(=O)O)c45)ccc3C)c2)c1 [SURAMIN]

From ChEMBL document CHEMBL4261497, “Nucleotide pyrophosphatase/phosphodiesterase 1 (NPP1) and its inhibitors” (Medchemcomm, 2017)
